Assay: Inhibition of alpha-glucosidase activity
Design: species or system Saccharomyces cerevisiae

Question: Which IC50 does the source give for `O=C(O)/C=C/c1ccc(Cl)cc1` here?
Answer: The IC50 was 390 µM.

Question: For `COc1cccc(/C=C/C(=O)O)c1`, which IC50 is on record?
Answer: The IC50 was 580 µM.

Question: Which IC50 does the source give for `CCCCOc1ccc(/C=C/C(=O)O)cc1` here?
Answer: Its IC50 is over 5000 µM.

Question: Which IC50 does the source give for `O=C(O)/C=C/c1ccc(OCc2ccccc2)cc1` here?
Answer: The IC50 was over 5000 µM.

Question: With `O=C(O)/C=C/c1ccc(Oc2ccccc2)cc1` as the compound, how does the IC50 read?
Answer: The IC50 was 440 µM.

Question: For `O=C(O)/C=C/c1ccc(Br)cc1`, which IC50 is on record?
Answer: The IC50 was over 5000 µM.

Question: For `O=C(O)/C=C/c1cccc(O)c1`, which IC50 is on record?
Answer: Its IC50 is 1270 µM.

Question: With `CCCCCCOc1ccc(/C=C/C(=O)O)cc1` as the compound, how does the IC50 read?
Answer: The IC50 was over 5000 µM.

Question: Which IC50 does the source give for `O=C(O)/C=C/c1ccc([N+](=O)[O-])cc1` here?
Answer: The IC50 was over 5000 µM.

Question: With `O=C(O)/C=C/c1ccc(F)cc1` as the compound, how does the IC50 read?
Answer: Its IC50 is 270 µM.

Question: With `CCOC(=O)/C=C/c1ccc(OC)cc1` [4-METHOXY ETHYL CINNAMATE] as the compound, how does the IC50 read?
Answer: Its IC50 is 50 µM.

Question: Which IC50 does the source give for `COc1ccc(/C=C/C(=O)O)cc1` [4-METHOXYCINNAMIC ACID] here?
Answer: Its IC50 is 40 µM.

Question: For `O=C(O)/C=C/c1ccccc1` [CINNAMIC ACID], which IC50 is on record?
Answer: The IC50 was over 5000 µM.

Question: Which IC50 does the source give for `O=C(O)/C=C/c1ccc(O)cc1` [COUMARIC ACID] here?
Answer: The IC50 was 200 µM.

Question: For `COc1ccccc1/C=C/C(=O)O` [COUMARINIC ACID METHYL ETHER], which IC50 is on record?
Answer: Its IC50 is 4340 µM.

Question: Which IC50 does the source give for `OC[C@H]1NC[C@H](O)[C@@H](O)[C@@H]1O` [DUVOGLUSTAT] here?
Answer: The IC50 was 5600 µM.

Question: Which IC50 does the source give for `CCOC(=O)/C=C/c1ccccc1` [ETHYL CINNAMATE] here?
Answer: Its IC50 is over 5000 µM.

Question: Which IC50 does the source give for `O=C(O)/C=C/c1ccccc1O` [O-COUMARIC ACID] here?
Answer: Its IC50 is over 5000 µM.
